# Test results published in PubChem BioAssay AID1918999 (Molecular Pharmacology Branch, DTP, NCI, 2023).
# System: 556581-035-R-J1-PDC complex spheroid growth
# Experiment: Anticancer human tumor 556581-035-R-J1-PDC patient-derived ovarian carcinoma cell line growth inhibition [AhR]
# Conditions: for IC50: curve of first compound; for viability, T/C: stronger effect = lower value
# Method in brief: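 Agents were dosed in half-log steps down from roughly clinical Cmax, or from 10 microM where Cmax was unknown, alone and with AhR antagonists. Read-out: percent test/control growth of tumor spheroids containing HUVEC and MSC stromal cells.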
# [1] = second compound 0.1 µM, first compound 0.0316 µM
# [2] = second compound 0.1 µM, first compound 0.1 µM
# [3] = second compound 0.1 µM, first compound 0.316 µM
# [4] = second compound 0.1 µM, first compound 1 µM
# [5] = second compound 0.1 µM, first compound 3.16 µM
# [6] = second compound 0.1 µM, first compound 10 µM
# [7] = second compound 0.316 µM, first compound 0.0316 µM
# [8] = second compound 0.316 µM, first compound 0.1 µM
# [9] = second compound 0.316 µM, first compound 0.316 µM
# [10] = second compound 0.316 µM, first compound 1 µM
# [11] = second compound 0.316 µM, first compound 3.16 µM
# [12] = second compound 0.316 µM, first compound 10 µM
# [13] = second compound 1 µM, first compound 0.0316 µM
# [14] = second compound 1 µM, first compound 0.1 µM
# [15] = second compound 1 µM, first compound 0.316 µM
# [16] = second compound 1 µM, first compound 1 µM
# [17] = second compound 1 µM, first compound 3.16 µM
# [18] = second compound 1 µM, first compound 10 µM
# [19] = second compound 3.16 µM, first compound 0.0316 µM
# [20] = second compound 3.16 µM, first compound 0.1 µM
# [21] = second compound 3.16 µM, first compound 0.316 µM
# [22] = second compound 3.16 µM, first compound 1 µM
# [23] = second compound 3.16 µM, first compound 3.16 µM
# [24] = second compound 3.16 µM, first compound 10 µM
# [25] = second compound 10 µM, first compound 0.0316 µM
# [26] = second compound 10 µM, first compound 0.1 µM
# [27] = second compound 10 µM, first compound 0.316 µM
# [28] = second compound 10 µM, first compound 1 µM
# [29] = second compound 10 µM, first compound 3.16 µM
# [30] = second compound 10 µM, first compound 10 µM
# 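For viability, T/C in this document: compound exposure lasted 7 days; 100% = DMSO vehicle control growth.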
smiles,measurement,setting,value
CC(C)CC(NC(=O)C(Cc1ccccc1)NC(=O)c1cnccn1)B(O)O (stereo not given) + CC(CO)NC(=O)c1cc(-c2ccc(Cl)cc2)nn(-c2cnn(C)c2)c1=O,IC50,second compound 0.1 µM,0.005 µM
same,IC50,second compound 0.316 µM,0.00457 µM
same,IC50,second compound 1 µM,0.00543 µM
same,IC50,second compound 3.16 µM,0.0047 µM
same,IC50,second compound 10 µM,0.00522 µM
same,"viability, T/C","second compound 0.1 µM, first compound 0.000949 µM",91.6%
same,"viability, T/C","second compound 0.1 µM, first compound 0.003 µM",88.4%
same,"viability, T/C","second compound 0.1 µM, first compound 0.00949 µM",1.95%
same,"viability, T/C","second compound 0.1 µM, first compound 0.03 µM",0.49%
same,"viability, T/C","second compound 0.1 µM, first compound 0.0949 µM",0.12%
same,"viability, T/C","second compound 0.1 µM, first compound 0.3 µM",0.33%
same,"viability, T/C","second compound 0.316 µM, first compound 0.000949 µM",106%
same,"viability, T/C","second compound 0.316 µM, first compound 0.003 µM",77.9%
same,"viability, T/C","second compound 0.316 µM, first compound 0.00949 µM",1.51%
same,"viability, T/C","second compound 0.316 µM, first compound 0.03 µM",2.26%
same,"viability, T/C","second compound 0.316 µM, first compound 0.0949 µM",0.2%
same,"viability, T/C","second compound 0.316 µM, first compound 0.3 µM",0.8%
same,"viability, T/C","second compound 1 µM, first compound 0.000949 µM",105%
same,"viability, T/C","second compound 1 µM, first compound 0.003 µM",99.7%
same,"viability, T/C","second compound 1 µM, first compound 0.00949 µM",3.31%
same,"viability, T/C","second compound 1 µM, first compound 0.03 µM",0.19%
same,"viability, T/C","second compound 1 µM, first compound 0.0949 µM",0.15%
same,"viability, T/C","second compound 1 µM, first compound 0.3 µM",0.27%
same,"viability, T/C","second compound 3.16 µM, first compound 0.000949 µM",85.7%
same,"viability, T/C","second compound 3.16 µM, first compound 0.003 µM",81%
same,"viability, T/C","second compound 3.16 µM, first compound 0.00949 µM",0.92%
same,"viability, T/C","second compound 3.16 µM, first compound 0.03 µM",2.07%
same,"viability, T/C","second compound 3.16 µM, first compound 0.0949 µM",1.26%
same,"viability, T/C","second compound 3.16 µM, first compound 0.3 µM",1.55%
same,"viability, T/C","second compound 10 µM, first compound 0.000949 µM",99.6%
same,"viability, T/C","second compound 10 µM, first compound 0.003 µM",94.2%
same,"viability, T/C","second compound 10 µM, first compound 0.00949 µM",2.36%
same,"viability, T/C","second compound 10 µM, first compound 0.03 µM",0.3%
same,"viability, T/C","second compound 10 µM, first compound 0.0949 µM",0.55%
same,"viability, T/C","second compound 10 µM, first compound 0.3 µM",0.95%
COc1cc(Nc2ncc3c(n2)-c2ccc(Cl)cc2C(c2c(F)cccc2OC)=NC3)ccc1C(=O)O + CC(CO)NC(=O)c1cc(-c2ccc(Cl)cc2)nn(-c2cnn(C)c2)c1=O,IC50,second compound 0.1 µM,> 10 µM
same,IC50,second compound 0.316 µM,> 10 µM
same,IC50,second compound 1 µM,> 10 µM
same,IC50,second compound 3.16 µM,> 10 µM
same,IC50,second compound 10 µM,> 10 µM
same,"viability, T/C",[1],86%
same,"viability, T/C",[2],70.6%
same,"viability, T/C",[3],66%
same,"viability, T/C",[4],66.5%
same,"viability, T/C",[5],61.3%
same,"viability, T/C",[6],52.6%
same,"viability, T/C",[7],88.8%
same,"viability, T/C",[8],73.4%
same,"viability, T/C",[9],59%
same,"viability, T/C",[10],62.2%
same,"viability, T/C",[11],55.2%
same,"viability, T/C",[12],49.4%
same,"viability, T/C",[13],95.7%
same,"viability, T/C",[14],69.3%
same,"viability, T/C",[15],73.4%
same,"viability, T/C",[16],64.9%
same,"viability, T/C",[17],55.8%
same,"viability, T/C",[18],49.5%
same,"viability, T/C",[19],79.9%
same,"viability, T/C",[20],71.2%
same,"viability, T/C",[21],70.2%
same,"viability, T/C",[22],65.7%
same,"viability, T/C",[23],54%
same,"viability, T/C",[24],60.9%
same,"viability, T/C",[25],88.5%
same,"viability, T/C",[26],80.8%
same,"viability, T/C",[27],66%
same,"viability, T/C",[28],71.3%
same,"viability, T/C",[29],56.7%
same,"viability, T/C",[30],55.1%
Nc1ccccc1NC(=O)c1ccc(CNC(=O)OCc2cccnc2)cc1 + CC(CO)NC(=O)c1cc(-c2ccc(Cl)cc2)nn(-c2cnn(C)c2)c1=O,IC50,second compound 0.1 µM,1.34 µM
same,IC50,second compound 0.316 µM,1.59 µM
same,IC50,second compound 1 µM,1.66 µM
same,IC50,second compound 3.16 µM,1.44 µM
same,IC50,second compound 10 µM,1.56 µM
same,"viability, T/C",[1],96.9%
same,"viability, T/C",[2],102%
same,"viability, T/C",[3],78%
same,"viability, T/C",[4],53.2%
same,"viability, T/C",[5],36.9%
same,"viability, T/C",[6],17.5%
same,"viability, T/C",[7],107%
same,"viability, T/C",[8],91%
same,"viability, T/C",[9],87.1%
same,"viability, T/C",[10],58.7%
same,"viability, T/C",[11],34.9%
same,"viability, T/C",[12],15.4%
same,"viability, T/C",[13],118%
same,"viability, T/C",[14],100%
same,"viability, T/C",[15],77.3%
same,"viability, T/C",[16],60.8%
same,"viability, T/C",[17],38.6%
same,"viability, T/C",[18],17.8%
same,"viability, T/C",[19],105%
same,"viability, T/C",[20],102%
same,"viability, T/C",[21],84.8%
same,"viability, T/C",[22],58%
same,"viability, T/C",[23],33.2%
same,"viability, T/C",[24],20.6%
same,"viability, T/C",[25],106%
same,"viability, T/C",[26],103%
same,"viability, T/C",[27],88.6%
same,"viability, T/C",[28],62.8%
same,"viability, T/C",[29],30.4%
same,"viability, T/C",[30],12.6%
O=C(C=Cc1cccc(S(=O)(=O)Nc2ccccc2)c1)NO + CC(CO)NC(=O)c1cc(-c2ccc(Cl)cc2)nn(-c2cnn(C)c2)c1=O,IC50,second compound 0.1 µM,1.18 µM
same,IC50,second compound 0.316 µM,1.28 µM
same,IC50,second compound 1 µM,1.47 µM
same,IC50,second compound 3.16 µM,1.19 µM
same,IC50,second compound 10 µM,1.08 µM
same,"viability, T/C",[1],96.6%
same,"viability, T/C",[2],88.9%
same,"viability, T/C",[3],75.1%
same,"viability, T/C",[4],53.6%
same,"viability, T/C",[5],27.9%
same,"viability, T/C",[6],3.75%
same,"viability, T/C",[7],94%
same,"viability, T/C",[8],91.2%
same,"viability, T/C",[9],80.6%
same,"viability, T/C",[10],56.2%
same,"viability, T/C",[11],25.7%
same,"viability, T/C",[12],3.23%
same,"viability, T/C",[13],105%
same,"viability, T/C",[14],96.8%
same,"viability, T/C",[15],88%
same,"viability, T/C",[16],63.6%
same,"viability, T/C",[17],24.9%
same,"viability, T/C",[18],2.84%
same,"viability, T/C",[19],98.7%
same,"viability, T/C",[20],93.7%
same,"viability, T/C",[21],74.1%
same,"viability, T/C",[22],54.1%
same,"viability, T/C",[23],28.1%
same,"viability, T/C",[24],3.83%
same,"viability, T/C",[25],105%
same,"viability, T/C",[26],104%
same,"viability, T/C",[27],75.8%
same,"viability, T/C",[28],53%
same,"viability, T/C",[29],24.3%
same,"viability, T/C",[30],4.22%
